Common to all, as to assay: NCI anticancer screen, dose series, 48 h
Test [1] has as its system IGROV-1.
In test [2] the test system is OVCAR-3.
In test [3] the test system is SK-OV-3.
The subject of test [4] is PC-3.
Test [5] deals with COLO 205.
Test [6] has as its system MDA-MB-435.
In test [7] the test system is T47D.
The subject of test [8] is SK-MEL-2.
Test [9] has as its system NCI-H522.
Test [10] concerns SF-268.
The test system of test [11] is CAKI-1.
Test [12] concerns KM12.
Test [13] has as its system LOX IMVI.
The test system of test [14] is UO-31.
Test [15] concerns HOP-62.
Test [16] concerns HT-29.
For test [17], the system named is SK-MEL-5.
Test [18] has as its system OVCAR-8.
In test [19] the test system is SK-MEL-28.
Test [20] has as its system MOLT-4.

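Method: 48-hour compound exposure of cells in 96-well plates, five concentrations, linear interpolation of endpoints. Abbreviation: GI50, concentration required for 50% inhibition of growth.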 Calls of active or inactive are those of the source. Rule as the data show it: active = GI50 up to about 1.1 µM and inactive = higher.

Turning to `O=c1sc2c(s1)-c1sc(=O)sc1SS2`, the GI50 was > 96.4 µM (inactive) in test [1]; > 100 µM (inactive) in [2]; > 100 µM (inactive) in test [3]; > 100 µM (inactive) in test [4]; > 46 µM (inactive) in test [5]; > 100 µM (inactive) in [6]. Also, the GI50 in test [7] is > 100 µM (inactive); in [8] it was > 100 µM (inactive); in test [9] it was > 91.4 µM (inactive); in test [10], > 100 µM (inactive); in test [11] it was > 100 µM (inactive); in test [12], > 100 µM (inactive). For the same compound, the GI50 in test [13] is > 60.4 µM (inactive); in [14], > 100 µM (inactive); in test [15], > 100 µM (inactive); in test [16], > 42.1 µM (inactive); in [17], > 56.5 µM (inactive); in [18], 21.6 µM (inactive). The results for the GI50 in test [19] and in [20] were > 100 µM (inactive) and > 61 µM (inactive), respectively.

Regarding `O=C1Nc2ccccc2/C1=N/NC(=S)NCc1ccccn1`, the GI50 is 0.0721 µM (active) in test [1]; < 0.01 µM (active) in test [2]; 1.12 µM (inactive) in test [3]; 0.0508 µM (active) in [4]; < 0.01 µM (active) in [5]; 0.931 µM (active) in [6]. Also, the GI50 in [7] is 0.0343 µM (active); in test [8], 2.9 µM (inactive); in test [9] it was 0.17 µM (active); in [10], 0.136 µM (active); in test [11], 0.0951 µM (active); in test [12], 0.698 µM (active). Also, the GI50 in test [13] is 0.371 µM (active); in test [14], 0.373 µM (active); in test [15], 0.483 µM (active); in test [16], 0.0462 µM (active); in [17] it was 0.551 µM (active); in test [18], 0.346 µM (active). For the same compound, the values for the GI50 in [19] and in [20] were 2.36 µM (inactive) and < 0.01 µM (active), respectively.

For the compound `COc1ccc2c(c1OC(C)=O)C1=CC(=O)CCC13CCNC3C2` (stereo not given), the GI50 in test [1], in [2], in test [3], in [4], in test [5] and in test [6] was > 100 µM (inactive) each time. In addition, the GI50 in [7], in test [8], in test [9], in test [10], in test [11] and in [12] was > 100 µM (inactive) in each case. Moreover, the GI50 in [13], in test [14], in [15], in test [16], in test [17] and in [18] was > 100 µM (inactive) throughout. The GI50 in [19] and in test [20] was > 100 µM (inactive) throughout.

For the compound `Cc1cc(CN(Cc2ccccc2)Cc2nc3ccccc3[nH]2)c(O)c(CN(Cc2nc3ccccc3[nH]2)Cc2nc3ccccc3[nH]2)c1`, the GI50 in test [1] was 5.04 µM (inactive); in test [2], 6.5 µM (inactive); in test [3] it was 5.55 µM (inactive); in [4], 12.4 µM (inactive); in test [5] it was 19.8 µM (inactive); in test [6], 7.52 µM (inactive). The GI50 in test [7] is 8.05 µM (inactive); in [8], 10.8 µM (inactive); in test [9] it was 16.2 µM (inactive); in test [10], 8.11 µM (inactive); in [11], 8.69 µM (inactive); in [12], 6.3 µM (inactive). The GI50 is 3.48 µM (inactive) in [13]; 7.03 µM (inactive) in test [14]; 5.26 µM (inactive) in test [15]; 4.11 µM (inactive) in [16]; 6.73 µM (inactive) in test [17]; 4.18 µM (inactive) in test [18]. In addition, the results for the GI50 in [19] and in [20] were 26.2 µM (inactive) and 4.26 µM (inactive), respectively.

Regarding `COc1cccc(CCN2CCN(CCCc3ccccc3)CC2)c1`, the GI50 is > 100 µM (inactive) in test [1]; 64.6 µM (inactive) in [2]; 88.1 µM (inactive) in test [3]; > 100 µM (inactive) in [4]; 21.1 µM (inactive) in test [5]; 85.9 µM (inactive) in test [6]. The GI50 in test [7] is 43.6 µM (inactive); in [8], > 100 µM (inactive); in test [9] it was 22.6 µM (inactive); in [10], > 100 µM (inactive); in test [11] it was 67.3 µM (inactive); in test [12], 51.8 µM (inactive). The GI50 in [13] was 55.1 µM (inactive); in test [14], 51.1 µM (inactive); in test [15] it was 79.1 µM (inactive); in test [16] it was 31.8 µM (inactive); in test [17], 19.4 µM (inactive); in [18], > 100 µM (inactive). The GI50 in test [19] is > 100 µM (inactive); in test [20], 92.3 µM (inactive).

Take `NC(=O)c1ncn(C2OC(CO)C(O)C2O)c1NC=O` (stereo not given): the GI50 in [1], in test [2], in test [3], in [4], in [5] and in test [6] was > 100 µM (inactive) each time. Further, the GI50 in [7], in test [8], in test [9], in test [10], in test [11] and in test [12] was > 100 µM (inactive) throughout. Moreover, the GI50 in test [13], in test [14], in test [15], in [16], in [17] and in [18] was > 100 µM (inactive) throughout. The GI50 in [19] and in test [20] was > 100 µM (inactive) each time.

`C[N+](C)(C)C(Cc1c[nH]c(=S)[nH]1)C(=O)O` (stereo not given): the GI50 in test [1], in test [2], in test [3], in [4], in test [5] and in test [6] was > 100 µM (inactive) in each case. Moreover, the GI50 in test [7], in test [8], in test [9], in test [10], in [11] and in test [12] was > 100 µM (inactive) in each case. The GI50 in [13], in [14], in test [15], in test [16], in test [17] and in test [18] was > 100 µM (inactive) in each case. Also, the GI50 in [19] and in [20] was > 100 µM (inactive) each time.

As to `O=C(O)C(F)(OC(F)(F)C(F)(F)C(F)(F)F)C(F)(F)F` (stereo not given), the GI50 in [1], in test [2], in test [3], in test [4], in [5] and in test [6] was > 100 µM (inactive) throughout. The GI50 in test [7], in test [8], in test [9], in test [10], in test [11] and in [12] was > 100 µM (inactive) each time. The GI50 in [13], in [14], in test [15], in test [16], in test [17] and in test [18] was > 100 µM (inactive) in each case. Moreover, the GI50 in test [19] and in test [20] was > 100 µM (inactive) each time.

Consider `O=[N+]([O-])c1ccc(C(Nc2ccccc2)c2ccc3cccnc3c2O)cc1` (stereo not given), for which the GI50 in test [1] was 10.6 µM (inactive); in [2], 4.02 µM (inactive); in test [3] it was 23.8 µM (inactive); in [4], 10.8 µM (inactive); in [5], 12.2 µM (inactive); in test [6] it was 14.4 µM (inactive). For the same compound, the GI50 in test [7] is 5.25 µM (inactive); in test [8], 24.3 µM (inactive); in test [9], 4.24 µM (inactive); in test [10], 4.46 µM (inactive); in [11] it was 6.25 µM (inactive); in test [12] it was 7.94 µM (inactive). Also, the GI50 was 6.5 µM (inactive) in test [13]; 6.78 µM (inactive) in test [14]; 7.48 µM (inactive) in test [15]; 7.08 µM (inactive) in test [16]; 7.18 µM (inactive) in test [17]; 3.85 µM (inactive) in test [18]. In addition, the GI50 is 40.6 µM (inactive) in test [19] and 0.423 µM (active) in test [20].

Regarding `CCCCCCCCCCCCOP(=O)(O)OP(=O)(O)OCC1OC(n2ccc(N)nc2=O)CC1O` (stereo not given), the GI50 in [1], in test [2], in test [3], in test [4], in [5] and in test [6] was > 100 µM (inactive) each time. The GI50 in [7] is 38.3 µM (inactive); in [8], > 100 µM (inactive); in test [9], > 100 µM (inactive); in test [10], > 100 µM (inactive); in test [11], > 100 µM (inactive); in [12], > 100 µM (inactive). Also, the GI50 in test [13], in test [14], in test [15], in test [16], in test [17] and in test [18] was > 100 µM (inactive) in each case. Further, the GI50 in test [19] and in test [20] was > 100 µM (inactive) each time.

The values are drawn from ChEMBL document CHEMBL1201862, “PubChem BioAssay data set” (2004).
